Read-outs that look alike come from different tables or passages of the source.
Tests used:
human orexin 2 receptor = human orexin 2 receptor (Homo sapiens (Human), UniProt O43614); assay: Human orexin 2 receptor radioligand binding ([3H]-EMPA competition, HEK293 membranes)
rat orexin 1 receptor = rat orexin 1 receptor (Rattus norvegicus (Rat), UniProt P56718); assay: Rat orexin 1 receptor radioligand binding (competitive binding, HEK293 membranes)
human orexin 1 receptor = human orexin 1 receptor (Homo sapiens (Human), UniProt O43613); assay: Human orexin 1 receptor radioligand binding (competitive binding, CHO membranes)
Chain of human orexin 1 receptor (O43613 whole entry): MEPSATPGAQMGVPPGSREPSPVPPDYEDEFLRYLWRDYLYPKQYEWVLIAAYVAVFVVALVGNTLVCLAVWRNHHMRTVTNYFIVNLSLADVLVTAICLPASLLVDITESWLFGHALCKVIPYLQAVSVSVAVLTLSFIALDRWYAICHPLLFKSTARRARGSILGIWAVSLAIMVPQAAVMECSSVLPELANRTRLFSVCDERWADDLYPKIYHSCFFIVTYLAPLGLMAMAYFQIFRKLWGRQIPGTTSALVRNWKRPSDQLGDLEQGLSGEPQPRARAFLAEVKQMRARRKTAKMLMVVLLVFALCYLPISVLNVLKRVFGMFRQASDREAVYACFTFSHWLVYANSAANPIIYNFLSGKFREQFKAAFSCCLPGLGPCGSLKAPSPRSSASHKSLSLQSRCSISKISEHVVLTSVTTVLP

[1] = human orexin 2 receptor, Table 2, averages from between 2-20 runs, read-out: hOX2 Ki
[2] = rat orexin 1 receptor, Table 2, averages from between 2-20 runs, read-out: rOX1 Ki
[3] = human orexin 1 receptor, Table 2, averages of 2-20 runs, read-out: hOX1 Ki
[4] = Table 2, further testing, averages from 2-20 runs, read-out: hOX2 Ki
[5] = Table 2, further testing, averages from 2-20 runs, read-out: rOX1 Ki
[6] = human orexin 2 receptor, Table 2, averages of 2-20 runs, read-out: hOX2 Ki

Chain of human orexin 2 receptor (O43614 whole entry): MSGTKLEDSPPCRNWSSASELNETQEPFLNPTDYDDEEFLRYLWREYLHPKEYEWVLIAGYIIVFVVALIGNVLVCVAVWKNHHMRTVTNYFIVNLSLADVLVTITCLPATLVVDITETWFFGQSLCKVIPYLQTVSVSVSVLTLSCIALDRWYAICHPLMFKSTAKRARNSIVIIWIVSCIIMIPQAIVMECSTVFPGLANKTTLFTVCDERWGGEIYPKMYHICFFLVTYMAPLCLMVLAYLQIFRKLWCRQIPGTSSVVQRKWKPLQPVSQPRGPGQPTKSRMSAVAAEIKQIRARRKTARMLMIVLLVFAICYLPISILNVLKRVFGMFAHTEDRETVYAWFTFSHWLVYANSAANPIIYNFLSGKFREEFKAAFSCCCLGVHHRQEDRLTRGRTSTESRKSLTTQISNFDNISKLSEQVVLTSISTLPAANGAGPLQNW
Chain of rat orexin 1 receptor (P56718 whole entry): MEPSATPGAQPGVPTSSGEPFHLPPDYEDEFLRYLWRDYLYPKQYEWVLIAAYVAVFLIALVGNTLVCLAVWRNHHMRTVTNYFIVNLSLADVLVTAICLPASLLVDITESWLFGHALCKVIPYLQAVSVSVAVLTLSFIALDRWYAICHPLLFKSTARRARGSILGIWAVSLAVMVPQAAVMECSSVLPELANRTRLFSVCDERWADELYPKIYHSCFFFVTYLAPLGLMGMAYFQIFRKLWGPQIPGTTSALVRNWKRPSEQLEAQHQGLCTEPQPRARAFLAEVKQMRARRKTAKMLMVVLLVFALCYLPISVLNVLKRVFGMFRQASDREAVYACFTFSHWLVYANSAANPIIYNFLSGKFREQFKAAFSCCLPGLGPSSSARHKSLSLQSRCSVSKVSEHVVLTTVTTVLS

For `O=C(c1cccc(F)c1-n1nccn1)N1C2CCC1C(Oc1ccc(C(F)(F)F)nc1)C2` (racemic) [Example 438], the Ki (human orexin 2 receptor; [1]) was > 10 µM and the Ki (rat orexin 1 receptor; [2]) was > 10 µM.
In the case of `Cc1cc(C)nc(OCC2CC3CCC2N3C(=O)c2ccccc2-c2cccs2)n1` (racemic) [Example 46, (±)-(2-(((4,6-dimethylpyrimidin-2-yl)oxy)methyl)-7-azabicyclo[2.2.1]heptan-7-yl)(2-(thiophen-2-yl)phenyl)methanone], the Ki (human orexin 1 receptor; [3]) is reported as 0.111 µM.
`Cc1cnc(-c2ncccn2)c(C(=O)N2[C@@H]3CC[C@H]2[C@H](Nc2ccc(C(F)(F)F)cn2)C3)c1` [Example 378, (5-methyl-2-(pyrimidin-2-yl)pyridin-3-yl)((1S,2R,4R)-2-((5-(trifluoromethyl)pyridin-2-yl)amino)-7-azabicyclo[2.2.1]heptan-7-yl)methanone] was tested, and the Ki (human orexin 2 receptor; [1]) was > 10 µM and the Ki (rat orexin 1 receptor; [2]) was 0.31 µM.
Compound `O=C(c1ccccc1-c1cccs1)N1C2CCC1C(COc1ccc(F)cn1)C2` (racemic) [Example 11, (±)-(2-(((5-fluoropyridin-2-yl)oxy)methyl)-7-azabicyclo[2.2.1]heptan-7-yl)(2-(thiophen-2-yl)phenyl)methanone] has a Ki (human orexin 2 receptor) of 0.013 µM.
In the case of `Cc1cnc(-c2ncccn2)c(C(=O)N2[C@@H]3CC[C@H]2[C@H](Nc2cnc(C(F)(F)F)cn2)C3)c1` [Example 404, (5-methyl-2-(pyrimidin-2-yl)pyridin-3-yl)((1S,2R,4R)-2-((5-(trifluoromethyl)pyrazin-2-yl)amino)-7-azabicyclo[2.2.1]heptan-7-yl)methanone], the Ki (human orexin 2 receptor; [1]) is reported as > 10 µM and the Ki (rat orexin 1 receptor; [2]) is reported as 0.419 µM.
`Cc1ccc(-c2ncccn2)c(C(=O)N2[C@@H]3CC[C@H]2[C@H](Nc2ccc(C(F)(F)F)cn2)C3)n1` [Example 379, (6-methyl-3-(pyrimidin-2-yl)pyridin-2-yl)((1S,2R,4R)-2-((5-(trifluoromethyl)pyridin-2-yl)amino)-7-azabicyclo[2.2.1]heptan-7-yl)methanone] showed a Ki (rat orexin 1 receptor; read-out: rOX1 Ki) of 0.025 µM and a Ki (human orexin 1 receptor; read-out: hOX1 Ki) of 0.024 µM.
With `Cc1ccc(C(=O)N2C3CCC2C(Oc2ccc(C(F)(F)F)cn2)C3)c(-n2nccn2)n1` (racemic) [Example 427] the Ki (human orexin 2 receptor; [1]) was > 10 µM and the Ki (rat orexin 1 receptor) was 0.56 µM.
`COc1ccc(C(=O)N2[C@@H]3CC[C@H]2[C@H](Nc2cnc(C(F)(F)F)cn2)C3)c(Cl)n1` [Example 413, (2-chloro-6-methoxypyridin-3-yl)((1S,2R,4R)-2-((5-(trifluoromethyl)pyrazin-2-yl)amino)-7-azabicyclo[2.2.1]heptan-7-yl)methanone] was tested, and the Ki (human orexin 2 receptor; [1]) was > 10 µM and the Ki (rat orexin 1 receptor; [2]) was > 10 µM.
`O=C(c1c(F)cccc1-n1nccn1)N1C2CCC1C(Oc1ccc(C(F)(F)F)cn1)C2` (racemic) [Example 425] gave a Ki (human orexin 2 receptor) of 5.1 µM and a Ki (rat orexin 1 receptor; [2]) of 0.587 µM.
`O=C(c1cccc(F)c1-c1ncccn1)N1C2CCC1C(Oc1cnc(C(F)(F)F)cn1)C2` (racemic) [Example 447, (R/S)-(3-fluoro-2-(pyrimidin-2-yl)phenyl)(2-((5-(trifluoromethyl)pyrazin-2-yl)oxy)-7-azabicyclo[2.2.1]heptan-7-yl)methanone] was tested, and the Ki (human orexin 2 receptor; [4]) was > 10 µM and the Ki (rat orexin 1 receptor; [5]) was 0.293 µM.
`O=C(c1ccccc1-n1cccn1)N1C2CCC1C(COc1ccc(F)cn1)C2` (racemic) [Example 26, (±)-2-(1H-pyrazol-1-yl)phenyl)(2-(((5-fluoropyridin-2-yl)oxy)methyl)-7-azabicyclo[2.2.1]heptan-7-yl)methanone] was tested, and the Ki (human orexin 1 receptor; [3]) was 0.134 µM.
Compound `O=C(c1cccc(F)c1-c1ncccn1)N1[C@@H]2CC[C@H]1[C@H](Nc1nc(C(F)(F)F)cs1)C2` [Example 418, (3-fluoro-2-(pyrimidin-2-yl)phenyl)((1S,2R,4R)-2-((4-(trifluoromethyl)thiazol-2-yl)amino)-7-azabicyclo[2.2.1]heptan-7-yl)methanone] has a Ki (human orexin 2 receptor; [1]) of 2.5 µM and a Ki (rat orexin 1 receptor; [2]) of 0.459 µM.
Compound `O=C(c1c(F)cccc1-c1ncccn1)N1C2CCC1C(COc1ccc(F)cn1)C2` (racemic) [Example 31, (±)-(2-fluoro-6-(pyrimidin-2-yl)phenyl)(2-(((5-fluoropyridin-2-yl)oxy)methyl)-7-azabicyclo[2.2.1]heptan-7-yl)methanone] has a Ki (human orexin 1 receptor) of 0.043 µM.
`COc1c(F)cccc1C(=O)N1C2CCC1C(Nc1ccc(F)cn1)C2` (racemic) [Example 237, (±)-(3-fluoro-2-methoxyphenyl)(2-((5-fluoropyridin-2-yl)amino)-7-azabicyclo[2.2.1]heptan-7-yl)methanone] was tested, and the Ki (rat orexin 1 receptor; [2]) was > 1 µM.
In the case of `O=C(c1cccc(F)c1-n1nccn1)N1C2CCC1C(Oc1cnc(C(F)(F)F)cn1)C2` (racemic) [Example 445, (R/S)-(3-fluoro-2-(2H-1,2,3-triazol-2-yl)phenyl)(2-((5-(trifluoromethyl)pyrazin-2-yl)oxy)-7-azabicyclo[2.2.1]heptan-7-yl)methanone], the Ki (human orexin 2 receptor; [4]) is reported as > 10 µM and the Ki (rat orexin 1 receptor; [5]) is reported as 0.46 µM.
With `O=C(c1cccc(F)c1-n1nccn1)N1C2CCC1C(Oc1ncc(Br)cn1)C2` (racemic) [Example 441] the Ki (human orexin 2 receptor; [1]) was > 10 µM and the Ki (rat orexin 1 receptor) was 1.5 µM.
With `O=C(c1cccnc1-n1nccn1)N1[C@@H]2CC[C@H]1[C@H](Nc1cnc(C(F)(F)F)cn1)C2` [Example 402, (2-(2H-1,2,3-triazol-2-yl)pyridin-3-yl)((1S,2R,4R)-2-((5-(trifluoromethyl)pyrazin-2-yl)amino)-7-azabicyclo[2.2.1]heptan-7-yl)methanone] the Ki (human orexin 2 receptor; [1]) was > 10 µM and the Ki (rat orexin 1 receptor; [2]) was 0.575 µM.
In the case of `O=C(c1cccc(F)c1-c1ncccn1)N1[C@H]2CC[C@@H]1[C@@H](Nc1cnc(C(F)(F)F)cn1)C2` [Example 297, (3-fluoro-2-(pyrimidin-2-yl)phenyl)((1R,2S,4S)-2-((5-(trifluoromethyl)pyrazin-2-yl)amino)-7-azabicyclo[2.2.1]heptan-7-yl)methanone], the Ki (rat orexin 1 receptor) is reported as 0.402 µM and the Ki (human orexin 1 receptor; human orexin 1 receptor, Table 2, averages from between 2-20 runs, read-out: hOX1 Ki) is reported as > 10 µM.
For `Cc1cccc(C(=O)N2C3CCC2C(Oc2ccc(C(F)(F)F)nc2)C3)c1-n1nccn1` (racemic) [Example 437], the Ki (human orexin 2 receptor; [1]) was > 10 µM and the Ki (rat orexin 1 receptor) was > 10 µM.
`O=C(c1cccc(F)c1-n1nccn1)N1C2CCC1C(Oc1cnc3ccccc3n1)C2` (racemic) [Example 442] was tested, and the Ki (human orexin 2 receptor; [1]) was 1.9 µM and the Ki (rat orexin 1 receptor; [2]) was 0.349 µM.
For `O=C(c1cc(F)ccc1-c1ncccn1)N1C2CCC1C(COc1ccc(F)cn1)C2` (racemic) [Example 32, (4)-(5-fluoro-2-(pyrimidin-2-yl)phenyl)(2-(((5-fluoropyridin-2-yl)oxy)methyl)-7-azabicyclo[2.2.1]heptan-7-yl)methanone], the Ki (human orexin 2 receptor; [6]) was 0.13 µM.
In the case of `O=C(c1cccc(F)c1-n1ccnn1)N1C2CCC1C(Oc1ccc(C(F)(F)F)cn1)C2` (racemic) [Example 424], the Ki (human orexin 2 receptor; [1]) is reported as > 10 µM and the Ki (rat orexin 1 receptor; [2]) is reported as 2.7 µM.
Compound `O=C(c1cccc(F)c1-c1ncccn1)N1C2CCC1C(COc1ccc(F)cn1)C2` (racemic) [Example 124, (±)-(3-fluoro-2-(pyrimidin-2-yl)phenyl)(-2-(((5-fluoropyridin-2-yl)oxy)methyl)-7-azabicyclo[2.2.1]heptan-7-yl)methanone] has a Ki (human orexin 1 receptor) of 0.075 µM.
With `CCOc1ncc2ccccc2c1C(=O)N1C2CCC1C(COc1ccccn1)C2` (racemic) [Example 83, (±)-(3-ethoxyisoquinolin-4-yl)(2-((pyridin-2-yloxy)methyl)-7-azabicyclo[2.2.1]heptan-7-yl)methanone] the Ki (human orexin 1 receptor) was 0.013 µM.
With `O=C(c1c(F)cccc1-n1nccn1)N1C2CCC1C(Oc1ccc(C(F)(F)F)nc1)C2` (racemic) [Example 439] the Ki (human orexin 2 receptor; [1]) was > 10 µM and the Ki (rat orexin 1 receptor; [2]) was > 10 µM.
`O=C(c1cccc(F)c1-n1nccn1)N1C2CCC1C(Oc1cc(Br)cnc1Cl)C2` (racemic) [Example 443] was tested, and the Ki (human orexin 2 receptor; [1]) was > 10 µM and the Ki (rat orexin 1 receptor; [2]) was > 10 µM.
With `Cc1ccc(C(=O)N2C3CCC2C(Oc2cnc(C(F)(F)F)cn2)C3)c(-n2nccn2)n1` (racemic) [Example 446, (R/S)-(6-methyl-2-(2H-1,2,3-triazol-2-yl)pyridin-3-yl)(2-((5-(trifluoromethyl)pyrazin-2-yl)oxy)-7-azabicyclo[2.2.1]heptan-7-yl)methanone] the Ki (human orexin 2 receptor; [4]) was > 10 µM and the Ki (rat orexin 1 receptor; [5]) was 4.7 µM.
`Cc1coc(-c2ccc(C)nc2C(=O)N2[C@@H]3CC[C@H]2[C@H](COc2ncc(F)cn2)C3)n1` [Example 179, ((1S,2R,4R)-2-(((5-fluoropyrimidin-2-yl)oxy)methyl)-7-azabicyclo[2.2.1]heptan-7-yl)(6-methyl-3-(4-methyloxazol-2-yl)pyridin-2-yl)methanone] was tested, and the Ki (human orexin 2 receptor; [6]) was 5.4 µM and the Ki (rat orexin 1 receptor; rat orexin 1 receptor, Table 2, averages of 2-20 runs, read-out: rOX1 Ki) was 2.4 µM.
For `O=C(c1cccnc1-n1nccn1)N1C2CCC1C(Oc1ccc(C(F)(F)F)cn1)C2` (racemic) [Example 426], the Ki (human orexin 2 receptor) was > 10 µM and the Ki (rat orexin 1 receptor) was 5.4 µM.
In the case of `O=C(c1cccc(F)c1-c1ncccn1)N1[C@@H]2CC[C@H]1[C@H](Nc1nnc(C(F)(F)F)s1)C2` [Example 419, (3-fluoro-2-(pyrimidin-2-yl)phenyl)((1S,2R,4R)-2-((5-(trifluoromethyl)-1,3,4-thiadiazol-2-yl)amino)-7-azabicyclo[2.2.1]heptan-7-yl)methanone], the Ki (human orexin 2 receptor; [1]) is reported as 7.4 µM and the Ki (rat orexin 1 receptor; [2]) is reported as 0.853 µM.
`Cc1cccc(C(=O)N2[C@@H]3CC[C@H]2[C@H](Nc2cnc(C(F)(F)F)cn2)C3)c1-c1ncco1` [Example 266, (3-methyl-2-(oxazol-2-yl)phenyl)((1S,2R,4R)-2-((5-(trifluoromethyl)pyrazin-2-yl)amino)-7-azabicyclo[2.2.1]heptan-7-yl)methanone] gave a Ki (rat orexin 1 receptor; [2]) of 0.006 µM.
`Cc1cnc(-c2ncccn2)c(C(=O)N2[C@@H]3CC[C@H]2[C@H](Nc2ncc(C(F)(F)F)cc2F)C3)c1` [Example 455, ((1S,2R,4R)-2-((3-fluoro-5-(trifluoromethyl)pyridin-2-yl)amino)-7-azabicyclo[2.2.1]heptan-7-yl)(5-methyl-2-(pyrimidin-2-yl)pyridin-3-yl)methanone] was tested, and the Ki (human orexin 2 receptor; [4]) was > 10 µM and the Ki (rat orexin 1 receptor; [5]) was 0.464 µM.
With `Cc1cnc(-n2nccn2)c(C(=O)N2C3CCC2C(Oc2ccc(C(F)(F)F)cn2)C3)c1` (racemic) [Example 428] the Ki (human orexin 2 receptor; [1]) was > 10 µM and the Ki (rat orexin 1 receptor) was 1.1 µM.
